“And” between values parts separate entries of the source, which are not always exact repeats. Identical values can stand only once. Marks after values point to notes of the source that are not given here.
Experiments:
[1] = Calcein loaded vesicle leakage (lysis) assay; settings: 298 K, PBS buffer 5% EtOH
Method: To gauge the activity and selectivity of 1–5 and a–j against microbial membranes, a series of synthetic model vesicle systems were prepared, containing a variety of common bacterial membrane phospholipid headgroups: (i) phosphatidylglycerol (PG) only; (ii) phosphatidylethanolamine (PE) : PG 3 : 1 and; (iii) PE : PG 1 : 1.[50] Following our previous work in this area, we first quantified the ability of 1–5 and co-formulations a–j to lyse the aforementioned synthetic model phospholipid vesicle systems.[49] […] Here the fluorescent dye calcein was loaded into synthetic vesicles at a concentration where the dye self-quenches (70 mM). When the vesicle is lysed, the calcein is released to the extravesicular solution, effectively reducing calcein concentration to a point where the dye no longer undergoes self-quenching. Through comparison to a positive control experiment, in which 100% vesicle lysis was achieved through the addition of 2% X-100 Triton, the proportion of vesicles to undergo lysis in the presence or absence of SSA can be calculated. The data was then fitted to the Hill or linear equation to determine the effective concentration of SSA needed to lyse 50% of the vesicles present in solution (EC50) (Section S14, ESI ^†).[51] […]
Preparation of vesicles: All lipids were purchased as powder stocks from Avanti Polar Lipids. Lipid vesicles were prepared according to standard procedures. Each phospholipid (~ 20 mg) was dissolved in chloroform: methanol 3:1 (~ 10 mL) and the solvent was removed under reduced pressure. The thin film of dried lipid was further dried in vacuo overnight. Lipid films were resuspended in the desired buffer and subjected to 10 freeze-thaw cycles in liquid nitrogen and extruded 19 times through a 200 nm polycarbonate membrane.
Preparation of calcein loaded vesicles:2 Lipid films were resuspended in calcein dye (70 mg calcein, 865 µL deionized H2O, 135 µL NaOH (2 M), with NaOH added dropwise until calcein dissolved) and subjected to 10 freeze-thaw cycles in liquid nitrogen and extruded 19 times through a 200 nm polycarbonate membrane. The suspension was run down a size exclusion column packed with sephadex G-50 using 1 X PBS. The hydrodynamic dimeter of the lipids was monitored using an Anton Paar LitesizerTM 500 to ensure the separation of free and entrapped calcein. Phospholipid concentration was adjusted to 60 µM for vesicle leakage experiments.
Vesicle leakage assay: Black bottom 96-well plates were prepared by serially diluting desired SSA in a EtOH: H2O 1:19 solution across the plate, the appropriate lipid solution (100 µL, 60 µM) was added to each well to give a total well volume of 200 µL. A solution of 2 % Triton X-100 was used for a 100 % lysis control and a EtOH: H2O 1:19 solution was used as a 0 % lysis control. Fluorescent measurements were taken at 25 °C using an excitation value of 495 nm and an optimised gain of 800. Data were acquired in endpoint mode. […]
For fluorescent labelling, the desired vesicles were pre-incubated with DPH (10 µM) at 60 °C for 1 hour.
Membrane fluidity assay: Black bottom 96-well plates were prepared by serially diluting desired SSA in a EtOH: H2O 1:19 solution across the plate, the appropriate DPH labelled vesicles (100 µL, 60 µM) were added to each well to give a total well volume of 200 µL. FP measurements were taken at 25 °C using a 355 nm filter for excitation and a 430 m for emission. […]
Figure S168 – Average (n=3) […] readings of calcein loaded PE:PG 3:1 lipid vesicles (λem = 515 nm) following the addition of j at varying concentrations. Lysis value is triton (1 %). Blue = 1 minute, purple = 5 minutes, pink = 10 minutes, orange = 15 minutes, red = 20 minutes. Error = standard […]
Section S14: Determination of vesicle lysis EC50 values
Data was originally fitted to the Hill equation using origin software. If the fitting of these vesicle lysis data to the Hill equation failed then the data were fitted to a linear line of best fit to estimate EC50 […]
above 0.1 mM. […]

[2] = Dynamic light scattering (DLS) of SSA aggregates; assay type: physicochemical; settings: for Peak 1 (nm) / Peak 2 (nm) / Peak 3 (nm): DLS average intensity particle size distribution; for Peak 1 (nm) / Peak 2 (nm) / Peak 3 (nm) / PDI: EtOH:H2O 1:19; for dH (nm): DLS intensity distribution peak maxima, H2O:EtOH 19:1, 2.78 mM, 298 K, after annealing
Excerpt: DLS studies: All vials used for preparing the samples were clean and dry. All solvents used were filtered to remove any particulates that may interfere with the results obtained. Samples of differing concentrations were obtained through serial dilution of a concentrated solution. All samples underwent an annealing process, in which they were heated to 313 K before being allowed to cool to 298 K to allow each sample to reach a thermodynamic minimum. […]

[3] = Tensiometry: critical aggregation concentration and surface tension; assay type: physicochemical; settings: H2O:EtOH 19:1, approx. 291 K; for CAC (mM) / CAC: surface tension measurements, bounds represent the limit of solubility; for Surface tension at limit of solubility: footnote c, CAC not reached
[4] = PE:PG 1:1 vesicles, 1 min (Timepoint 1 in Table S14)
[5] = PE:PG 1:1 vesicles, 5 min (Timepoint 2 in Table S14)
[6] = PE:PG 1:1 vesicles, 10 min (Timepoint 3 in Table S14)
[7] = PE:PG 1:1 vesicles, 15 min (Timepoint 4 in Table S14)
[8] = PE:PG 1:1 vesicles, 20 min (Timepoint 5 in Table S14)
[9] = PE:PG 3:1 vesicles, 1 min (Timepoint 1 in Table S13)
[10] = PE:PG 3:1 vesicles, 5 min (Timepoint 2 in Table S13)
[11] = PE:PG 3:1 vesicles, 10 min (Timepoint 3 in Table S13)
[12] = PE:PG 3:1 vesicles, 15 min (Timepoint 4 in Table S13)
[13] = PE:PG 3:1 vesicles, 20 min (Timepoint 5 in Table S13)
[14] = PG vesicles, 1 min (Timepoint 1 in Table S12), total molar concentration
[15] = PG vesicles, 5 min (Timepoint 2 in Table S12)
[16] = PG vesicles, 10 min (Timepoint 3 in Table S12)
[17] = PG vesicles, 15 min (Timepoint 4 in Table S12)
[18] = PG vesicles, 20 min (Timepoint 5 in Table S12)
[19] = polydispersity index of DLS dH, 2.78 mM

Row | EC50 [1, 4] | EC50 [1, 5] | EC50 [1, 6] [mM] | EC50 [1, 7] [mM] | EC50 [1, 8] | EC50 [1, 9] [mM] | EC50 [1, 10] [mM] | EC50 [1, 11] [mM] | EC50 [1, 12] | EC50 [1, 13] | EC50 [1, 14] [mM] | EC50 [1, 15] [mM] | EC50 [1, 16] [mM] | EC50 [1, 17] [mM] | EC50 [1, 18] [mM] | Peak 2 (nm) ([2]; 0.28 mM) | Peak 2 (nm) ([2]; 2.78 mM) | dH (nm) [2] | PDI ([2]; DLS, 0.28 mM) | PDI [2, 19] | SMILES | further results
1 | 0.055 mM and 0.0549 mM | 0.01 mM and 0.0095 mM | 0.0048 | 0.002 | 0.002 mM and 0.0015 mM | 0.0302 | 0.009 | 0.004 | 0.002 mM and 0.0022 mM | 0.002 mM and 0.0017 mM | 0.0677 | 0.032 | 0.0156 | 0.0062 | 0.0037 | 100.61 | 184.36 | 184.36 nm and 184 nm | 0.0602 | 0.0315 | O=S(=O)(O)CCCNC(=S)Nc1ccc(C(F)(F)F)cc1 [SSA 1] | Peak 1 (nm) ([2]; 0.28 mM): 0.23 nm; Peak 3 (nm) ([2]; 0.28 mM): 747.99 nm
2 | > 1.5 mM | 1.43 mM | 0.83 | 0.661 | 0.585 mM | > 1.5 | > 1.5 | > 1.5 | > 1.5 mM | 1.15 mM | > 1.5 | 1.14 | 0.727 | 0.563 | 0.49 | 139.08 | 142.73 | 142 nm and 143 nm | 0.0160 | 0.0350 | O=C(O)CNC(=S)Nc1ccc(C(F)(F)F)cc1 [SSA 2] | CAC (mM) [3]: >10.0 ^b mM; Surface tension at limit of solubility [3]: 41 ^c mN m^−1
3 | > 1.5 mM | > 1.5 mM | 1.33 | 0.953 | 0.829 mM | > 1.5 | > 1.5 | > 1.5 | > 1.5 mM | > 1.5 mM | 0.867 | 0.615 | 0.529 | 0.15 | 0.17 | 56.01 | 672.27 | 672.27 nm and 672 nm | 0.0863 | 0.0658 | Cc1ccc2nc(-c3ccc(NC(=O)NCS(=O)(=O)O)cc3)sc2c1 [SSA 3] | Peak 1 (nm) ([2]; 0.28 mM): 0.43 nm; Peak 3 (nm) ([2]; 0.28 mM): 462.06 nm; Peak 1 (nm) ([2]; 2.78 mM): 51.65 nm
4 | > 1.5 mM | > 1.5 mM | 0.948 | 0.675 | 0.574 mM | > 1.5 | > 1.5 | 1.18 | 0.95 mM | 0.91 mM | 1.02 | 0.396 | 0.341 | 0.288 | 0.218 | – | 162.46 | 162.46 nm and 162 nm | 0.0452 | 0.0388 | O=c1c(NCCCS(=O)(=O)O)c(Nc2ccc(C(F)(F)F)cc2)c1=O [SSA 4] | CAC [3]: < 7.5 mM; CAC (mM) [3]: >7.5 ^b mM; Surface tension at limit of solubility [3]: 42 ^c mN m^−1
5 | > 1.5 mM | 0.302 mM | 0.129 | 0.1 | 0.234 mM | > 1.5 | > 1.5 | 0.683 | 0.54 mM | 0.429 mM | > 1.5 | 0.641 | 0.13 | 0.088 | 0.061 | 125.90 | 160.53 | 174 nm | 0.0547 | 0.0614 | O=C(O)CNc1c(Nc2ccc(C(F)(F)F)cc2)c(=O)c1=O [SSA 5] | Peak 3 (nm) ([2]; 0.28 mM): 747.97 nm; CAC [3]: < 2.78 mM; CAC (mM) [3]: >2.8 ^b mM; Surface tension at limit of solubility [3]: 43 ^c mN m^−1
